Data set [1] concerns the target T1, human VR1 (Homo sapiens, UniProt Q8NER1).
T1 construct: expressed in transfected cells
Kind of data set: Inhibition of Ca2+ entry in cells caused by proton (Test Example [1]). Type of data set: cell-based. As to conditions: for IC50: rat glioma (C6BU1) cells stably expressing human VR1, proton stimulation, pH 5.7, Ca2+ uptake, Fura 2-AM, read-out: VRI Inhibition IC50. On the procedure: An inhibitory effect on VR1 activity was evaluated by measuring Ca^2+ uptake in cells.
Rat glioma (C6BU1) cells stably expressing human VR1 were suspended in 20 mM MES buffer (at pH 6.8, contg. 20 mM 2-morpholinoethanesulfonate (referred to as MES hereinafter), 115 mM NaCl, 5 mM KCl, 1 mM MgCl2 and 14 mM D-glucose) to make a cell density of 1×10^6 cells/mL. A fluorescent dye, Fura 2-AM solution (Dojindo Corporate, Cat. No. 343-05401) was added to the suspension to make a 5 μM concentration thereof. Further, Pluronic F-127 (Wako Pure Chemical Industries, Ltd., Cat. No. P6866) was added to make a 0.1% content thereof. Then, the suspension was incubated at 37° C. for 30 min. The cells were harvested and washed two times with 20 mM MES buffer. The cells were suspended again to make a cell density of 5×10^5 cells/mL. A 500-μL portion of the suspension was taken with a cuvette (MC MEDICAL, INC., Cat. No. SSR3121), to which 10 μL of 20 mM MES buffer containing 250 mM CaCl2 was added to incorporate Ca^2+ into the cells. At the same time, 5 μL of a test compound solution (in a range of 100 μM to 10 nM in DMSO) was also added to provide a final concentration thereof in a range of 1 μM to 0.1 nM. Alternatively, 5 μL of DMSO was added as control to provide a final concentration of 1% DMSO. The suspension was set in an intracellular ionometer (CAF-110; JASCO) 10 min after those additions. The cells were stimulated with protons by addition of 50 μL of 20 mM MES buffer at pH 1.1 to the suspension to set its pH at 5.7. The activity of the test compound was determined as a difference between the minimum of fluorescence intensity before agonist stimulation and its maximum after the stimulation. The value of IC50 was derived from percentage of inhibition by the test compound compared with the control.

Data set [2] can be described thus: In-vitro membrane permeability test (Test Example [3]). As to conditions: human, Caco-2, Caco2 cells, 2 hours. Type of data set: in vitro ADME. As for the experimental part: (§1) 10 mM DMSO solution of the test compound was diluted with Hanks buffer (pH 6.5) to 25 μM to make a test compound solution. 300 μL of Apical buffer (Hanks buffer (pH 6.5)) and 1 mL of Basolateral buffer (4.5% BSA-containing Hanks buffer (pH 7.4)) were added to the apical side (mucosal side) and the basolateral side (serosal side), respectively, of Caco2 cells (cells cultured for 6 days after seeding) seeded onto a plate for permeability test (BIOCOAT HTS Caco2 Assay system: BD Biosciences), and preincubated at 37° C. for 20 minutes, followed by measurement of a transepithelial electrical resistance value. Each buffer on the apical side and basolateral side was removed by aspiration. Then, 300 μL of the test compound solution and 1 mL of Basolateral buffer were added to the apical side and the basolateral side, respectively, and incubated at 37° C. for 2 hours with stirring at 60 rpm. Then, sampling was performed from each of the apical side and the basolateral side, and the sample was supplemented with acetonitrile and centrifuged. The test compound (uncharged) in the supernatant was measured using high-performance liquid chromatography/tandem mass spectrometry (LC/MS/MS: Quantum, Thermo Quest).
(§2) A membrane permeability coefficient (Papp) was calculated according to the following equation: Papp(cm/sec.)=(dx/dt)/(A×C0)
(§3) (wherein dx is the amount of the test compound (uncharged) on the basolateral side after incubation, dt is an incubation time, A is the surface area of the cell membrane, and C0 is the initial concentration of the test compound on the apical side.)
On the technique in general: Passage across Caco-2 layers is used to estimate intestinal permeability.

In data set [3] the test system is Caco2 cells. The description is as above. Format: in vitro ADME. As to conditions: summary judgement. As for the experimental part: as §1, §2, §3
The nature of data set [4]: Metabolic stability test in liver S9 (Test Example [2]). Format: in vitro ADME, human. As to conditions: for Human liver S9 remaining ratio: human liver S9 2 mg protein/mL, 37° C., 60 minutes of incubation vs 0 minute. On the procedure: Human liver S9 (final concentration: 2 mg protein/mL) was suspended in 100 mM potassium phosphate buffer (at pH 7.4, which contained β-nicotinamide adenine dinucleotide phosphate: 1.3 mM, D-glucose-6-phosphate: 3.3 mM, magnesium chloride: 3.3 mM and glucose-6-phosphate dehydrogenase: 0.45 U/mL) and further mixed with the test compound dissolved in DMSO. The mixture was incubated at 37° C. for 0 and 60 minutes and then supplemented with acetonitrile containing formic acid (final concentration 0.1%). The test compound (uncharged) in a supernatant after centrifugation was measured using high-performance liquid chromatography/mass spectrometry (LC/MS). A remaining ratio (%) was calculated from the obtained measurement value according to the following equation: Remaining ratio (%)=(amount of test compound after 60 minutes of incubation/amount of test compound on 0 minute of incubation)×100

The nature of data set [5]: Stability test in Japanese Pharmacopoeia 1 solution (Test Example [4]). Format: physicochemical. As to conditions: for remaining ratio in Japanese Pharmacopoeia 1 solution: CH3CN : Japanese Pharmacopoeia 1 solution 3:7, 0.05 mM, 40° C., after 8 hours vs 0 hour. On the procedure: The test compound was dissolved in a mixed solution of CH3CN and Japanese Pharmacopoeia 1 solution (volume ratio 3:7) and adjusted in a vial for HPLC to a concentration of 0.05 mM. The test compound was measured by HPLC at 40° C. after 0 and 8 hours. The measurement value on 0 hour was defined as 100% to determine the remaining ratio of the test compound after 8 hours.
The “Japanese Pharmacopoeia 1 solution” here represents a solution in which 21 ml of concentrated hydrochloric acid was added to 6 g of sodium chloride and further adjusted to 3 L with distilled water.

Where [6] appears, read: apical (pH 6.5) to basolateral (pH 7.4, 4.5% BSA), 25 μM, 37° C., read-out: membrane permeability Papp.
[7] abbreviates: compared with the compound of Comparative Example 8.
[8] abbreviates: apical to basolateral, read-out: membrane permeability in terms of the Papp values.

These results are taken from patent publication US7906508B2, “3,4-dihydrobenzoxazine compounds and inhibitors of vanilloid receptor subtype 1 (VRI) activity” (Japan Tobacco Inc., priority 2005, dated 2011).

Read-outs that look alike come from different tables or passages of the source.

As a reminder, the IC50 is the concentration needed to halve the response being measured.

T1 sequence (Q8NER1 whole entry): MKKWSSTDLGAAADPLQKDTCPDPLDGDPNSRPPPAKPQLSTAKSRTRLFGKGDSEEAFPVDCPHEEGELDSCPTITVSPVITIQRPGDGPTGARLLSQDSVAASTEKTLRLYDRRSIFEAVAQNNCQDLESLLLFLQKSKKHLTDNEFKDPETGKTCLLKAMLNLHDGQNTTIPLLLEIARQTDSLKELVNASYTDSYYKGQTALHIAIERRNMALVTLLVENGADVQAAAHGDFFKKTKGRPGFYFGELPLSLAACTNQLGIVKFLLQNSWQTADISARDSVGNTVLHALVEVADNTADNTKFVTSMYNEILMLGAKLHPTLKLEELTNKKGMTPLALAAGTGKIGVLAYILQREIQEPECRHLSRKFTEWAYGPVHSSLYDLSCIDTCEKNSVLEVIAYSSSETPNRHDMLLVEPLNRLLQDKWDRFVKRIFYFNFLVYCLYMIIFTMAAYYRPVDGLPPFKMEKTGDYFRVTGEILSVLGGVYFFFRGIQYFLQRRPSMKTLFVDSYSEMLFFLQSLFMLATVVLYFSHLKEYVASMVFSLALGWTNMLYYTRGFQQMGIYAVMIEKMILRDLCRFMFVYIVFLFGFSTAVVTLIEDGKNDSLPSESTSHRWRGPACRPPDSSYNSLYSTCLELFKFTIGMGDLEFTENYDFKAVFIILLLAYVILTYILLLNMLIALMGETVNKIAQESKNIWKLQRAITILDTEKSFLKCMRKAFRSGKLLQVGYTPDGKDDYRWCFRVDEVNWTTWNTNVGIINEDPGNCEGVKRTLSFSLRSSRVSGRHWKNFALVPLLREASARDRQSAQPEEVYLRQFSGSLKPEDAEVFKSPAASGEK

As to `Cc1ccc(N2c3cccc(C(=O)Nc4ccc(OC(C)C)c(F)c4)c3OC[C@@H]2CO)nc1` [Comparative Example 11], in data set [1], the IC50 was determined as 360 pM. Besides, the Papp A→B at 2 h, 25 μM in data set [2] (setting [6]) was found to be 40.3 ×10⁻⁶ cm/s. Further, in data set [3], the “membrane permeability (in words)” value was “high membrane permeability”. Further, the “Human liver S9 remaining ratio” value in data set [4] worked out at 66.7%.
Take `Cc1ccc(N2c3cccc(C(=O)Nc4cc(F)c(OCC(F)(F)F)c(F)c4)c3OC[C@@H]2CO)nc1` [Example 1-8, (S)-4-(5-picoline-2-yl)-3-hydroxymethyl-N-[3,5-difluoro-4-(2,2,2-trifluoroethoxy)phenyl]-3,4-dihydro-2H-benzo[1,4]oxazine-8-carboxamide]: the IC50 in data set [1] worked out at 38 pM. For the same compound, the Papp A→B at 2 h, 25 μM in data set [2] (setting [6]) was determined as 13.6 ×10⁻⁶ cm/s. The “remaining ratio in Japanese Pharmacopoeia 1 solution” value in data set [5] is on record as 101%.
As for `Cc1ccc(N2c3cccc(C(=O)Nc4ccc(C(F)(F)F)nc4)c3OC[C@@H]2CO)nc1` [Comparative Example 8], the IC50 in data set [1] was found to be 7000 pM. In addition, the Papp A→B at 2 h, 25 μM in data set [2] (setting [6]) was 43.1 ×10⁻⁶ cm/s. Also, the “membrane permeability (in words)” value in data set [3] was “high membrane permeability”. Further, the “Human liver S9 remaining ratio” value in data set [4] was determined as 62.9%.
Consider `Cc1ccc(N2c3cccc(C(=O)Nc4ccc(OCC(F)(F)F)nc4)c3OC[C@@H]2CO)nc1` [Example 1-6, (S)-4-(5-picoline-2-yl)-3-hydroxymethyl-N-[2-(2,2,2-trifluoroethyloxy)pyridine-5-yl]-3,4-dihydro-2H-benzo[1,4]oxazine-8-carboxamide], for which the “value of IC50 relative to Comparative Example 8” value in data set [1] (setting [7]) is “about 50 times”. The IC50 in data set [1] amounted to 150 pM. Also, the Papp A→B at 2 h, 25 μM in data set [2] (setting [6]) was 37.5 ×10⁻⁶ cm/s; in data set [2] (setting [8]), at least 30 ×10⁻⁶ cm/s. In addition, the “remaining ratio in Japanese Pharmacopoeia 1 solution” value in data set [5] amounted to 100%. Besides, the “liver S9 remaining ratio relative to Comparative Example 8” value in data set [4] (setting [7]) is given as “about 1.5 times”.
As for `Cc1ccc(N2c3cccc(C(=O)Nc4ccc(OC(C)(C)C)nc4)c3OC[C@@H]2CO)nc1` [Example 1-5, (S)-4-(5-picoline-2-yl)-3-hydroxymethyl-N-(2-tert-butoxypyridine-5-yl)-3,4-dihydro-2H-benzo[1,4]oxazine-8-carboxamide], in data set [1], the IC50 worked out at 660 pM. For the same compound, the values for the Papp A→B at 2 h, 25 μM in data set [2] (setting [6]) and in data set [2] (setting [8]) were 38.1 ×10⁻⁶ cm/s and at least 30 ×10⁻⁶ cm/s, respectively. Moreover, the “Human liver S9 remaining ratio” value in data set [4] turned out to be 82.2%.
Take `Cc1ccc(N2c3cccc(C(=O)Nc4ccc(OC(C)(C)C)c(F)c4)c3OC[C@@H]2CO)nc1` [Comparative Example 13]: the IC50 in data set [1] amounted to 120 pM. Moreover, the Papp A→B at 2 h, 25 μM in data set [2] (setting [6]) was found to be 28.6 ×10⁻⁶ cm/s. For the same compound, the “remaining ratio in Japanese Pharmacopoeia 1 solution” value in data set [5] is given as 62.1%. For the same compound, the “stability in gastric juice (in words)” value in data set [5] (inferred from stability in Japanese Pharmacopoeia 1 solution) is on record as “inferior stability in gastric juice”. In addition, in data set [4], the “Human liver S9 remaining ratio” value is given as 91.3%. For the same compound, the “metabolic stability in human liver S9 (in words)” value in data set [4] (summary judgement) is listed as “excellent metabolic stability”.
